Results published in a compilation of properties of binary mixtures (doi:10.1016/j.molliq.2017.06.010).
One block for each molecule: values may come before it.

Assay: xn = mol fraction of the nth substance listed
Details: 303.15 K, 100 kPa

- electrical conductivity (x2 = 0.015): 0.0004 S/m
- speed of sound (x2 = 0.015): 1522.1 m/s
- viscosity (x2 = 0.015): 16.6 mPa·s
- electrical conductivity (x2 = 0.0341): 0.0004 S/m
- speed of sound (x2 = 0.0341): 1524.3 m/s
- viscosity (x2 = 0.0341): 15.2 mPa·s
- electrical conductivity (x2 = 0.0417): 0.0004 S/m
- speed of sound (x2 = 0.0417): 1525.3 m/s
- viscosity (x2 = 0.0417): 14.7 mPa·s
- electrical conductivity (x2 = 0.0546): 0.0004 S/m
- speed of sound (x2 = 0.0546): 1526.8 m/s
- viscosity (x2 = 0.0546): 13.8 mPa·s
SMILES: CCC(=O)[O-].OCC[NH2+]c1ccccc1 + O

- electrical conductivity (x2 = 0.016): 0.0005 S/m
- speed of sound (x2 = 0.016): 1508.9 m/s
- viscosity (x2 = 0.016): 18.1 mPa·s
- electrical conductivity (x2 = 0.0386): 0.0005 S/m
- speed of sound (x2 = 0.0386): 1509.4 m/s
- viscosity (x2 = 0.0386): 16.9 mPa·s
- electrical conductivity (x2 = 0.0546): 0.0005 S/m
- speed of sound (x2 = 0.0546): 1509.8 m/s
- viscosity (x2 = 0.0546): 16.3 mPa·s
- electrical conductivity (x2 = 0.0724): 0.0005 S/m
- speed of sound (x2 = 0.0724): 1510.4 m/s
- viscosity (x2 = 0.0724): 15.4 mPa·s
SMILES: CCCC(=O)[O-].OCC[NH2+]c1ccccc1 + O
